Consider 15 compounds from PubChem BioAssay (NCI).

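Interpolation was linear, between the two tested concentrations surrounding the appropriate level; five concentrations were tested over 48 hours in 96-well plates. GI50 is the concentration that inhibits growth by half. TGI marks complete inhibition of growth.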 Some results are limits rather than exact numbers.

Some test systems named below: OVCAR-5 ovarian; T-47D breast; U251 CNS; OVCAR-3 ovarian; K-562 leukemia; ACHN renal; SF-268 CNS; MOLT-4 leukemia; NCI-H226 lung; SR leukemia.
Experiment in all cases: DTP human tumour cell line panel, 48 h

Take `C=C(CN1CCN(c2ccccc2OC)CC1)c1ccc(C(=O)Nc2ccccc2N)cc1`: the GI50 (usually the concentration that inhibits growth by half) in the assay on OVCAR-5 ovarian is 7.56 µM; in the assay on T-47D breast it was 10.8 µM; in the assay on U251 CNS, 1.7 µM; in the assay on OVCAR-3 ovarian it was 5.64 µM; in the assay with K-562 leukemia, > 50 µM; in the assay on ACHN renal, 0.856 µM. The GI50 in the assay with SF-268 CNS was 12.2 µM. For the same compound, the TGI (as a rule, the concentration giving total growth inhibition) was 22.8 µM in the assay with OVCAR-5 ovarian; 45.2 µM in the assay on T-47D breast; 11.1 µM in the assay with U251 CNS; 19.7 µM with OVCAR-3 ovarian; > 50 µM in the assay with K-562 leukemia; 4.95 µM in the assay on ACHN renal. Further, in the assay with SF-268 CNS, the TGI turned out to be 36 µM.

On to `Cc1cc(C)cc(-n2c3nc(=O)n(C)c(=O)c-3nc3ccccc32)c1`, for which the TGI in the assay on OVCAR-5 ovarian was 93.1 µM; in the assay on U251 CNS it was 50.5 µM; with MOLT-4 leukemia, 52.4 µM; with OVCAR-3 ovarian, 12.6 µM; with K-562 leukemia, 65.3 µM; with ACHN renal, > 100 µM. For the same compound, the TGI in the assay on SF-268 CNS and in the assay with NCI-H226 lung was > 100 µM throughout.

Consider `Cn1cnc([N+](=O)[O-])c1Sc1ccccn1`, for which the TGI in the assay on OVCAR-5 ovarian, with U251 CNS, in the assay with MOLT-4 leukemia, in the assay with OVCAR-3 ovarian, with K-562 leukemia and with ACHN renal was > 100 µM throughout. The TGI in the assay with SF-268 CNS, in the assay with NCI-H226 lung and in the assay with SR leukemia was > 100 µM each time.

Take `Cc1ccc(S(=O)(=O)N(/N=C(\N)Oc2ccc(Cl)cc2)C(=N)Oc2ccc(Cl)cc2)cc1`: the TGI in the assay with OVCAR-5 ovarian, with U251 CNS, with MOLT-4 leukemia, in the assay with OVCAR-3 ovarian, in the assay with K-562 leukemia and in the assay on ACHN renal was > 100 µM in each case. Moreover, the TGI in the assay with SF-268 CNS, in the assay on NCI-H226 lung and in the assay with SR leukemia was > 100 µM each time.

Consider `O=C(c1cc(O)ccc1O)c1ccccc1C(Cl)(Cl)Cl`, for which the TGI with OVCAR-5 ovarian, in the assay with U251 CNS, in the assay on MOLT-4 leukemia, with OVCAR-3 ovarian, in the assay with K-562 leukemia and in the assay on ACHN renal was > 100 µM throughout. The TGI in the assay on SF-268 CNS, in the assay on NCI-H226 lung and in the assay with SR leukemia was > 100 µM in each case.

For `N/C(=N\NS(=O)(=O)c1ccccc1)Oc1ccc(Cl)cc1`, the TGI in the assay on OVCAR-5 ovarian, in the assay on U251 CNS, in the assay on MOLT-4 leukemia, in the assay with OVCAR-3 ovarian, in the assay with K-562 leukemia and in the assay with ACHN renal was > 100 µM each time. Further, the TGI with SF-268 CNS, in the assay on NCI-H226 lung and with SR leukemia was > 100 µM each time.

On to `O=C(CC(=O)N1N=C(c2ccccc2)C(N=Nc2ccc(C(=O)O)cc2)C1=O)Nc1ccc(F)cc1` (stereo unspecified), for which the TGI was > 100 µM in the assay on OVCAR-5 ovarian; 56.2 µM in the assay on OVCAR-3 ovarian; > 100 µM in the assay on K-562 leukemia; > 100 µM in the assay on ACHN renal; > 100 µM in the assay with SF-268 CNS; 24 µM in the assay with NCI-H226 lung.

In the case of `CC(=O)NS(=O)(=O)c1ccc(NC(=O)COC(=O)c2cccc3c(=O)c4ccccc4[nH]c23)cc1`, the TGI in the assay on U251 CNS, in the assay with MOLT-4 leukemia, in the assay with OVCAR-3 ovarian, with K-562 leukemia, in the assay with ACHN renal and in the assay with NCI-H226 lung was > 100 µM in each case.

Consider `Cn1c2c([N+](=O)[O-])[se]nc2c(=O)n1-c1ccc([N+](=O)[O-])cc1`, for which the TGI with OVCAR-5 ovarian was 4.44 µM; in the assay with U251 CNS it was 7.04 µM; in the assay on OVCAR-3 ovarian, 3.12 µM; in the assay with K-562 leukemia, > 100 µM; in the assay with ACHN renal, 3.71 µM; in the assay with SF-268 CNS, 4.77 µM. The TGI turned out to be 7.91 µM with NCI-H226 lung and 0.271 µM in the assay with SR leukemia.

As to `COC(=O)/C=C/C(=O)C1C(C(=O)OC)C2(C(=O)OC)CCC1(C(=O)OC)N2` (stereo unspecified), the TGI in the assay on OVCAR-5 ovarian, in the assay on U251 CNS, with MOLT-4 leukemia, with OVCAR-3 ovarian, in the assay with K-562 leukemia and in the assay with SF-268 CNS was > 100 µM throughout. The TGI with SR leukemia was > 100 µM.

For `Cc1cnc[nH]c1=O`, the TGI with OVCAR-5 ovarian, in the assay on U251 CNS, in the assay with MOLT-4 leukemia, in the assay with OVCAR-3 ovarian, with K-562 leukemia and with ACHN renal was > 100 µM throughout. The TGI in the assay with SF-268 CNS and in the assay with NCI-H226 lung was > 100 µM each time.

As to `CC#C[C@@]1(O)CCCC[C@@H]1O`, the TGI with U251 CNS, with MOLT-4 leukemia, in the assay on OVCAR-3 ovarian, in the assay with K-562 leukemia, in the assay with ACHN renal and in the assay on SF-268 CNS was > 100 µM throughout. Moreover, the TGI with NCI-H226 lung is > 100 µM.

In the case of `c1ccc2c(CNCCCCCCNCc3cccc4ccccc34)cccc2c1`, the TGI was 29.3 µM with OVCAR-5 ovarian; 22.8 µM in the assay on U251 CNS; 6.46 µM in the assay on MOLT-4 leukemia; 30.6 µM with OVCAR-3 ovarian; 3.22 µM in the assay on K-562 leukemia; 29.5 µM with ACHN renal. Also, the TGI with SF-268 CNS was 25.7 µM; in the assay on NCI-H226 lung, 31.6 µM; with SR leukemia, 4.47 µM.

As to `O=NC1c2cccc3cccc(c23)C1N=O` (stereo unspecified), the TGI was 9.11 µM in the assay with OVCAR-5 ovarian; > 100 µM in the assay on T-47D breast; 28.1 µM with U251 CNS; > 100 µM in the assay with MOLT-4 leukemia; 9.6 µM in the assay on OVCAR-3 ovarian; 11.7 µM in the assay with K-562 leukemia. The TGI in the assay on ACHN renal amounted to 3.9 µM; in the assay on SF-268 CNS, 26.3 µM.

Take `COC(=O)C1=C(OC)c2cc3c(cc2C(c2cc(OC)c(OC)c(OC)c2)C1C(=O)OC)OCO3` (stereo unspecified): the concentration for total growth inhibition (TGI) in the assay with OVCAR-5 ovarian, in the assay with U251 CNS, in the assay with MOLT-4 leukemia, in the assay with OVCAR-3 ovarian, in the assay on K-562 leukemia and with ACHN renal was > 100 µM in each case. The TGI with SF-268 CNS, in the assay on NCI-H226 lung and in the assay on SR leukemia was > 100 µM throughout.
